Assay results: patent publication US20260069581A1, “METHODS AND COMPOSITIONS FOR CANCER THERAPY” (OHIO STATE INNOVATION FOUNDATION, priority 2020, published 2026)

Tests used:
MOLM13 cells = test: Western blotting of HR, NHEJ and ATM markers; assay type: cell-based, human
Protocol: (§1) Thereafter, cells were fixed, permeabilized and stained with BV421 mouse anti-H2A.X (pS139) (Clone N1-431). Stained cells were analyzed by flow cytometry. Results are shown as mean±SEM of duplicates. *p<0.05. N.S.: not significant. […] Results are shown as mean±SEM of duplicates. *p<0.05. […] MOLM13 cells were treated with vehicle control, 0.4 μM or 0.8 μM AR-42 alone, 0.1 μM or 0.25 μM KPT-2974 alone and drug combination for 24 hours before being subject to Western blotting analysis of HR, NHEJ and ATM markers. GAPDH served as loading control. Results are representative of two independent experiments. In the FIG. the treatment concentrations, protein detected in the given Western blot, and molecular weight of the protein detected are as shown in the figure. […] Scrambled or shHDAC8-transduced MOLM13 cells were treated with vehicle, 0.1 μM or 0.25 μM KPT-2974 before being subject to immunoblotting analysis of DNA repair targets. GAPDH serves as loading control. Results are representative of two independent experiments. In the FIG. the treatment concentrations, protein detected in the given Western blot, and molecular weight of the protein detected are as shown in the figure. […] PAPR1 was immunoprecipitated and mono-ADP-ribosylation was detected by western blotting. Results are representative of two independent experiments. […]

[1] = system: HR activity in EJDR-reporter-stable U2OS cells; test: EJDR reporter assay, HR-GFP; assay type: cell-based; details: ISceI-induced
Protocol: EJDR reporter assay. The EJDR assay was described previously (20). EJDR reporter cells were plated at 5×10^5 cells per well in 10% FBS and RPM11640. After drug treatments, cells were grown in 10% Tet-free FBS (100-800; Gemini) and RPM11640. Incorporated I-Sce1 was induced with Shield1 (632189; Clontech) and triamcinolone (TA) (T6510; Sigma Aldrich) ligands for 24 hours. NHEJ and HR repair activities were assessed 48 hours post induction by quantification of DsRed- and GFP-positive cells on Cytomics FC 500 Flow Cytometer (Beckman Coulter, Brea, CA).
It was unclear whether the potent ability of HDAC inhibitor to induce apoptosis of AML cells in combination with NAMPT inhibition was due to the loss of HR or NHEJ activity alone or both together. Accordingly, HR and NHEJ activities in AML cells exposed to these treatments were examined using the EJDR reporter system (FIG. 6B). EJDR-reporter-stable U2OS cells were treated with vehicle, single agents, or drug combination before being incubated with ligands, TA and Shield 1. […] The expression of D-NHEJ pathway factors, Ku70 and DNA-PKcs, and ATM pathway mediators, CHEK1 and CHEK2, were abolished by AR-42 and KPT-9274 co-treatment. […] Therefore, suppression of HDAC8 can attenuate HR and D-NHEJ gene expressions, resulting in NAMPT inhibitor sensitivity.

IDH2-WT TF-1 cells = test: Phospho-H2A.X (pS139) flow cytometry; assay type: cell-based; details: IDH2-WT TF-1, 48 hours, 0.8 μM AR-42, 0.1 μM KPT-9274
Protocol: as §1

SMILES | levels of HR components CtIP, Rad51, phosphorylated BRCA1 and phosphorylated ATM (MOLM13 cells; 0.4 μM and 0.8 μM AR-42, monotherapy or with KPT-9274, 24 hours) | HR activity (HR-GFP reporter) [1] | fluorescence intensity of phospho-H2A.X staining (IDH2-WT TF-1 cells) | abundance of D-NHEJ and ATM pathway mediators (MOLM13 cells; shHDAC8-transduced MOLM13, 0.1 μM or 0.25 μM KPT-9274)
CC(C)[C@H](C(=O)Nc1ccc(C(=O)NO)cc1)c1ccccc1 [AR-42, (S)—N-Hydroxy-4-(3-methyl-2-phenylbutanamido)benzamide] | significantly reduced | nearly completely abolished | slightly increased | –
Nc1ccc(/C=C/C(=O)NCc2cc3cc(-c4ccc(C(=O)N5CCC(F)(F)CC5)cc4)cc(-c4ccc(F)cc4)c3o2)cn1 [KPT-9274, (E)-3-(6-aminopyridin-3-yl)-N-[[5-[4-(4,4-difluoropiperidine-1-carbonyl)phenyl]-7-(4-fluorophenyl)-1-benzofuran-2-yl]methyl]prop-2-enamide] | – | did not impact HR activity | slightly increased | synergistically downregulated
